Source: US20170189496A1, “USE OF PHOSPHORYLATION PATHWAY-RELATED FACTOR IN REGULATING FUNCTION OF REGULATORY T CELL” (Institut Pasteur of Shanghai, Chinese Academy of Sciences, priority 2012, published 2017)

Columns and labels:
[1] = test system: SZ4.03 lymphocyte cell line that highly expresses FOXP3; test: Inflammatory cytokine induction of PIM1 expression in SZ4.03 cells (immunoblot); type: cell-based; conditions: IL-6 20 ng/ml or IL-4 30 ng/ml; for PIM1 expression: 0 h, 1 h, 2 h, 4 h; for FOXP3 expression levels: 0-4 h
Experimental: SZ4.03 cells were treated with IL-6 (20 ng/ml) or IL-4 (30 ng/ml), respectively. After 0 h, 1 h, 2 h, and 4 h, cells were collected and lysed by boiling directly in SDS-Loading Buffer. Samples were then analyzed by immunoblot.
SZ4.03 cells (lymphocyte cell line that highly expresses FOXP3, kept in the present laboratory; also can be routinely obtained by one skilled in the art according to methods described in Reference 7) were cultured in 1640 culture medium containing 10% FBS, 100 units/ml penicillin-streptomycin, 100 units ml non-essential amino acids, and 100 units/ml sodium pyruvate, at 37° C. under 5% CO2.
After protein samples were subjected to SDS-PAGE, transferred to nitrocellulose membrane, sealed in TBST with 5% skim milk for 1 h, primary antibody was added and incubated for 1 h, then HRP-conjugated secondary antibody was added and incubated for 1 h, and results shown by exposure with ECL substrates.
SZ4.03 cells were treated with IL-6 (20 ng/ml) or IL-4 (30 ng/ml), respectively, for 0 h, 1 h, 2 h, and 4 h. Cells were collected and lysed by boiling directly in SDS sample buffer, and then samples were analyzed by immunoblot (primary antibodies are PIM1 antibody and FOXP3 antibody) (results shown in FIG. 2).

[2] = test system: in vitro expanded natural regulatory T cells (nTreg); test: PIM1 protein expression in in vitro expanded nTreg under inflammatory cytokine stimulation; type: cell-based
[3] = test system: nTreg cells; test: nTreg expansion, FACS detection of FOXP3 and CTLA4; type: cell-based, human; conditions: 100 nM; IL-2 500 U/ml, CD3/CD28 dynabeads 3:1; two weeks; vs control group
Experimental: 500 U/ml of IL-2 was added to 2×10^5 nTreg cells. nTreg cells were expanded using CD3/CD28 T cell dynabeads and cells at 3:1 ratio. After two weeks, part of expanded nTreg cells were collected for FACS detection. Dynabeads were removed from the remaining cells. After 48 h of rest, FOXP3 and CTLA4 cells were collected again by flow cytometry. The working concentrations of Rapamycin and PIM1 inhibitors are both 100 nM.
500 U/ml of IL-2 was added to 2×10^5 nTreg cells. nTreg cells were expanded at a 3:1 ratio of CD3/CD28 T cell dynabeads and cells. After two weeks, part of the expanded nTreg cells were collected for FACS detection. Dynabeads were removed from the remaining cells and rested for 48 h. Cells were collected again for FACS detection of FOXP3 and CTLA4.

[4] = test system: human CD4+ CD25+ CD127low natural Treg (nTreg); test: Flow cytometry of expanded nTreg treated with PIM1 inhibitor; type: cell-based; conditions: 100 nM
Experimental: After removal of Beads, DMSO or PIM1 inhibitor (100 nM) was added and treated for 24 h, followed by APC-FOXP3 and PE-CD25 antibody staining for flow cytometry analysis.
After human CD4+ CD25+ CD127^low natural Treg (nTreg) were sorted by BD FACS Aria II flow sorter, and expanded through Bead-CD3/CD28 and IL-2 (500 U/ml). DMSO or PIM1 inhibitor (4-[3-(4-chlorophenyl)-2,1-benzisoxazol-5-yl]-2-pyrimidinamine, 100 nM) was added and treated for 24 h. and the cells were stained with APC-FOXP3 and PE-CD25 antibody for flow cytometry analysis (results shown in FIG. 5A). The expanded nTreg were rested for 24 h. DMSO or PIM1 inhibitor (100 nM) was then added and treated for 48 h, followed by staining with APC-FOXP3 and PE-CD25 antibody for flow cytometry analysis (results shown in FIG. 5B).

[5] = test system: nTreg mixed with CFSE-labeled human PBMC; test: nTreg immunosuppressive activity: proliferation of CFSE-labeled PBMC; type: cell-based; conditions: Treg:PBMC 1:2 or 1:4; Bead-CD3/CD28; 5 days; vs DMSO-treated group
Experimental: The expanded nTreg were mixed with human CFSE-labeled PBMC (2×10^5 cells/well) in U-shaped wells of 96-well plate at corresponding proportion. 5000 T cell dynabeads conjugated with CD3/CD28 antibody were added. Cell proliferation levels were detected after two groups of cells treated with DMSO and PIM1 inhibitors, respectively, were incubated for five days.
Regulatory T cells were obtained from human peripheral blood mononuclear cells (purchased from Shanghai Blood Center) by antibody labeling and magnetic bead sorting. As mentioned above, after labeling effector T cells with 1 μM CFSE (Invitrogen), regulatory T cells and effector T cells were cultured for 80 h. Flow cytometry was used to detect fluorescence intensity changes in effector T cells, their proliferation status was analyzed.
The expanded nTreg were mixed with CFSE-labeled human PBMC (2×10^5 cells/well) at the corresponding ratio (i.e., PBMC only, Treg:PBMC=1:2 or 1:4, or Treg only) in 96-well U-shaped well. 5000 Bead-CD3/CD28 were added to each well. Two groups of cells were treated, respectively, with DMSO and PIM1 inhibitors, cultured for 5 days, followed by detection of cell proliferation levels (results shown in FIG. 6).

[6] = test system: Jurkat cells stably expressing HA-FOXP3; test: FOXP3 protein degradation induced by PMA/LPS in Jurkat cells stably expressing HA-FOXP3 (immunoblot); type: cell-based; conditions: PMA 25 ng/ml + LPS 1 ng/ml, 24 h; kaempferol 50 μM, PIM1 inhibitor 100 nM, PI3K inhibitor 10 μg/ml; DMSO control
Experimental: HA-FOXP3-Jurkat stable expression cells were treated with PMA (25 ng/ml) and LPS (1 ng/ml). 50 μM kaempferol, 100 nM PIM1 inhibitors (specifically of 4-[3-(4-chlorophenyl)-2,1-benzisoxazol-5-yl]-2-pyrimidinamine), and 10 μg/ml PI3K inhibitor (LY294002) were added, and DMSO as a control. Cells were collected 24 h later. The levels of FOXP3 and GAPDH were detected directly by immunoblot.
Human embryonic kidney cell line HEK293 was co-transfected with FUGW-HA-FOXP3, del 8.9 and VSV-G. Cell culture supernatants were collected 48 h and 72 h after transfection. Viruses were purified by ultracentrifugation and used to infect Jurkat E6.1 to ultimately obtain Jurkat cell lines stably expressing HA-FOXP3.
Protein samples were subjected to SDS-PAGE, and then transferred to nitrocellulose membrane, which was then sealed in TBST containing 5% nonfat dry milk or 3% bovine serum albumin for 1 h. Primary antibody was added and incubated for 1 h and then HRP-conjugated secondary antibody was added and incubated for 1 h, and results shown by exposure with ECL substrates.
Jurkat cells stably expressing HA-FOXP3 were treated with PMA (25 ng/ml) and LPS (1 ng/ml). Each sample was added 50 μM kaempferol, 100 nM PIM1 inhibitor (i.e., 4-[3-(4-chlorophenyl)-2,1-benzisoxazol-5-yl]-2-pyrimidinamine), and 10 μg/ml PI3K inhibitor (LY294002). DMSO serves as a control. Cells were collected after 24 h.

[7] = biological target: T1, PIM1 (Homo sapiens, UniProt P11309); test: shPIM1 knockdown in SZ4.03 cells, mRNA of FOXP3 target genes by quantitative PCR; type: cell-based; design: SZ4.03 cells that highly expresses FOXP3 were infected with viral vectors carrying the negative control shRNA (shCK) and PIM1 shRNA (shPIM1); endogenous in cells; host or cells: SZ4.03 lymphocyte cell line; conditions: vs control shCK
Experimental: After 4 h, total RNA was extracted and converted to cDNA. PIM1 mRNA expression levels were then analyzed by quantitative PCR.
(§1) shPIM1 primer sequences were designed as follows:
After annealing, the synthesized shRNA primer sequences were ligated into lentiviral shRNA expression vector pLKO.1 (purchased from Addgene). After mixed at a ratio of pLKO.1:dR8.9:VSVG=5:4:3, HEK 293T cells were transfected with the mixture using calcium phosphate method. Viruses were collected 48 h after transfection. After low-speed centrifugation and filtration, virus suspension was used directly to infect target cells.
SZ4.03 cells that highly expresses FOXP3 were infected with viral vectors carrying the negative control shRNA (shCK) and PIM1 shRNA (shPIM1) packaged using lentiviral packaging system, followed by puromycin (50 ng/ml) selection and DMSO or PMA/inomycin (P/I) for 4 h. Total RNA was extracted and reverse transcribed to cDNA.

[8] = biological target: T1, PIM1; test: PIM shRNA lentivirus in primary nTreg, mRNA by quantitative PCR; type: cell-based; design: SZ4.03 cells that highly expresses FOXP3 were infected with viral vectors carrying the negative control shRNA (shCK) and PIM1 shRNA (shPIM1); endogenous in cells; conditions: primary nTreg cells; 1 week culture after lentivirus infection
Experimental: Primary nTreg cells were activated with 500 U/ml of IL-2 and CD3/CD28 T cell dynabeads and cells at 3:1 ratio for 4 h, and, respectively, infected with lentivirus encoding PIM1, PIM2, and PIM3 shRNA overnight. Continued incubation for one week, the mRNA levels of FOXP3 and its target gene CTLA4 were detected by quantitative PCR.
500 U/ml of IL-2 was added to 2×10^5 nTreg cells. Primary nTreg cells were activated at a 3:1 ratio of CD3/CD28 T cell dynabeads and cells for 4 h, followed by infection of lentiviruses encoding PIM1, PIM2, and PIM3 shRNA overnight. Cells were cultured for 1 week without removing dynabeads, and then the mRNAs level of FOXP3 and its target gene CTLA4 were detected (results shown in FIG. 12).
as §1
After annealing, the synthesized shRNA primer sequences were ligated into shRNA lentiviral expression vector pLKO.1 (purchased from Addgene). After mixed at a ratio of pLKO.1:dR8.9:VSVG=5:4:3, they were transfected into HEK 293T cells by calcium phosphate method. Viruses were collected 48 h after transfection. Virus suspensions, after low-speed centrifugation and filtration, were used directly to infect target cells.

[9] = 24 h or 48 h, vs DMSO control group

T1 sequence (P11309 whole entry): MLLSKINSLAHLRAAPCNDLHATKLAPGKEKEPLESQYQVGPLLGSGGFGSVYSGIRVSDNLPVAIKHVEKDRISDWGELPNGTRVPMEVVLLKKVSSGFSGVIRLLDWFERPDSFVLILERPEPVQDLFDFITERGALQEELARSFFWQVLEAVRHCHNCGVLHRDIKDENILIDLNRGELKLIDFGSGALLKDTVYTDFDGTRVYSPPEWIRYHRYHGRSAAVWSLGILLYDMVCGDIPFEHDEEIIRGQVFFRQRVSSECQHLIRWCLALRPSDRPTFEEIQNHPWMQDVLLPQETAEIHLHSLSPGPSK

IL-6: inflammatory cytokine, purchased from Apotech
PIM1 expression [1]: gradually increases as treatment time increases | FOXP3 expression levels [1]: no significant difference | PIM1 protein expression levels [2]: rapidly up-regulate

Nc1nccc(-c2ccc3noc(-c4ccc(Cl)cc4)c3c2)n1 [PIM1 inhibitor, 4-[3-(4-chlorophenyl)-2,1-benzisoxazol-5-yl]-2-pyrimidinamine]
FOXP3+ and CTLA4+ nTreg cell expansion [3]: promote | FOXP3 expression levels [4]: positively regulate | CD25+ FOXP3+ Treg cell levels [4, 9]: significantly increase | CLTA4+ FOXP3+ Treg cell levels [4, 9]: significantly increase | PBMC proliferation [5]: inhibited more | FOXP3 protein degradation [6]: can inhibit

B1: shPIM1: PIM1 shRNA (SEQ ID NO: 3 and 4) in lentiviral vector pLKO.1 (nucleic acid)
sense: CCGGGATACTCTCTTCTTCTCATAGCTCGAGCTATGAGAAGAAGAGAGTATCTTTTT
antisense: AATTAAAAAGATACTCTCTTCTTCTCATAGCTCGAGCTATGAGAAGAAGAGAGTATC
mRNA expression levels of FOXP3-negatively regulated target gene IL-2 [7]: reduces | mRNA expression levels of FOXP3-positively regulated target gene CTLA4 [7]: enhances | mRNA expression levels of FOXP3-positively regulated target gene GITR [7]: enhances | mRNA expression levels of non-FOXP3 target gene STUB1 [7]: does not affect | mRNA expression levels of PIM1 ([7]; DMSO or PMA/inomycin 4 h): significantly reduce | mRNA levels of CTLA4 [8]: increase

B2: IL-4: inflammatory cytokine, purchased from Apotech (protein, UniProt P05112 25-153, looked up)
Interleukin-4: HKCDITLQEIIKTLNSLTEQKTLCTELTVTDIFAASKNTTEKETFCRAATVLRQFYSHHEKDTRCLGATAQQFHRHKQLIRFLKRLDRNLWGLAGLNSCPVKEANQSTLENFLERLKTIMREKYSKCSS
PIM1 expression [1]: gradually increases as treatment time increases | FOXP3 expression levels [1]: no significant difference | PIM1 protein expression levels [2]: rapidly up-regulate
